# Patent US5036008A, “Antitumor antibiotic BU-3285T” (Bristol-Myers Company, priority 1990, dated 1991)
# “Also recorded” adds a separate entry of the source.
# Experiments:
# [1] = tested on: B16-F10 (murine melanoma) cells; assay: In vitro cytotoxicity (Table 6); assay type: cell-based; conditions: Mus musculus; B16-F10, 72 hrs, neutral red
# Protocol: (§1) BU-3285T was tested for in vitro cytotoxicity against several murine and human tumor cell lines and for in vivo antitumor activity in mice. Mitomycin C was used as a reference compound in both in vitro and in vivo experiments. B16-F10 (murine melanoma) and Moser (human colorectal carcinoma) cells were grown to the logarithmic phase in an enriched Eagle minimum essential medium supplemented with fetal calf serum (FCS, 10%) and kanamycin (60 μg/ml); HCT-116 (human colon carcinoma) cells were in McCoy's 5A medium supplemented with FCS (10%), penicillin (100 U/ml) and streptomycin (100 μg/ml); and P388 (murine lymphocytic leukemia) cells and its vincristine-resistant subline (P388/VCR) were in RPMI 1640 medium supplemented with FCS (10%), penicillin (100 U/ml) and streptomycin (100 μg/ml).
# (§2) B16-F10, Moser, HCT-116 and P388 cells were harvested and implanted into wells of a 96-well (for B16-F10, Moser and HCT-116 cells) or a 24-well (for P388 cells) tissue culture plate with test materials at the inoculum sizes of 3×10^4, 6 ×10^4, 6×10^4 and 2×10^4 cells/ml, respectively. They were incubated at 37° C. in a humidified atmosphere of 5% CO2 and 95% air for 72 hrs. […] For P388 cells, the number of viable cells was determined by a Coulter counter.
# [2] = tested on: HCT-116 (human colon carcinoma) cells; assay: In vitro cytotoxicity (Table 6); assay type: cell-based; conditions: HCT-116, 72 hrs, neutral red
# Protocol: as §1, §2
# [3] = tested on: P388 (murine lymphocytic leukemia) cells; assay: In vitro cytotoxicity (Table 6); assay type: cell-based; conditions: Mus musculus; P388, 72 hrs, Coulter counter
# Protocol: as §1, §2
# [4] = tested on: P388/VCR (vincristine-resistant subline of P388) cells; assay: In vitro cytotoxicity (Table 6)
# Protocol: as §1, §2
# [5] = tested on: protein biosynthesis in L1210 leukemia cells; assay: Inhibition of macromolecule biosynthesis, protein (Table 7); assay type: cell-based, murine
# Protocol: (§3) Inhibitory effects of BU-3285T on macromolecule biosynthesis (DNA, RNA and protein) were determined in cultured L1210 murine leukemia cells. The cells (5×10^5 cells/ml) were incubated with the compound at 37° C. for 15 minutes and then further incubated for 60 minutes after the addition of labelled precursor, ^3 H-thymidine, ^14 C-uridine or ^3 H-leucine into the cultured mixture. After washing with chilled 5% trichloroacetic acid solution, the radioactivity incorporated into the acid-insoluble fraction of the cells was determined by a liquid scintillation counter.
# [6] = tested on: L1210 leukemia; assay: In vivo antitumor activity against L1210 leukemia (Table 9); conditions: for Body wt. change on day 6 / MST (median survival time) / T/C: Q1D × 3
# [7] = tested on: HCT-116 (human colon carcinoma) cells; assay: In vitro cytotoxicity (Table 14); assay type: cell-based; conditions: HCT-116, 72 h
# Protocol: (§4) B16-F10 (murine melanoma), HCT-116 (human colon carcinoma), A549 (human lung carcinoma) and A549/VP29 (an etoposide-resistant subline of A549) were grown in Eagle's MEM (Nissui) supplemented with FCS (fetal calf serum, 10%) and non-essential amino acids (B16-F10), or in McCoy's 5A medium (Gibco) with FCS (10%), essential and non-essential amino acids, vitamins and antibiotics (HCT-116 and both of A549) at 37° C. under a humidified atmosphere in a 5% CO2 incubator. Exponentially growing B16-F10, HCT-116 and A549 cells were harvested, counted and suspended in the culture medium at 1.5×10^4, 3×10^4 and 3×10^4 cells/ml, respectively. After planting 180 μl of cell suspension into wells of a 96-well microtiter plate on day 0, the test materials (20 μl) were added on day 1 and the plates were incubated for 72 hours. The cytotoxic activity was colorimetrically determined at 540 nm after staining viable cells with neutral red solution.
# [8] = tested on: A549 (human lung carcinoma) cells; assay: In vitro cytotoxicity (Table 14); assay type: cell-based; conditions: A549, 72 h
# Protocol: as §4
# [9] = tested on: DNA biosynthesis in L1210 leukemia cells; assay: Inhibition of macromolecule biosynthesis, DNA (Table 15); assay type: cell-based, murine; conditions: at 100 μg/ml, the highest concentration tested
# Protocol: as §3, with “the above compounds” for “BU-3285T”, “macromolecule” for “macromolecule biosynthesis”, “protein) biosynthesis” for “protein)”, “test materials” for “compound”, “labeled” for “labelled”, “with” for “by”
# [10] = Solubility; assay type: physicochemical
# [11] = tested on: A549/VP29 (etoposide-resistant subline of A549) cells; assay: In vitro cytotoxicity (Table 14); conditions: A549/VP29, 72 hours, neutral red
# Protocol: (§5) After planting 180 μl of cell suspension into wells of a 96-well microtiter plate on day 0, the test materials (20 μl) were added on day 1 and the plates were incubated for 72 hours. The cytotoxic activity was colorimetrically determined at 540 nm after staining viable cells with neutral red solution.
# [12] = tested on: murine and human tumor cell lines; assay: In vitro cytotoxicity, overall statement
# Protocol: as §5
# [13] = tested on: Candida albicans IAM4888; assay: In vitro antifungal activity, serial agar dilution; conditions: IAM4888, 40 h, pH 7
# Protocol: (§6) In vitro antifungal activity was determined against various fungi by the serial agar dilution method. Sabouraud dextrose agar (pH 7.0) was used for the experiment. The inoculum size was adjusted to 10^6 CFU/ml. After incubation at 28° C. for 40 hours, the minimum inhibitory concentration (MIC) was examined.
# [14] = tested on: Cryptococcus neoformans D49; assay: In vitro antifungal activity, serial agar dilution; conditions: D49, 40 h, pH 7
# Protocol: as §6
# [15] = tested on: Aspergillus fumigatus IAM2530; assay: In vitro antifungal activity, serial agar dilution; conditions: IAM2530, 40 h, pH 7
# Protocol: as §6
# [16] = tested on: A. flavus FA21436; assay: In vitro antifungal activity, serial agar dilution; conditions: Aspergillus flavus, FA21436, 40 h, pH 7
# Protocol: as §6
# [17] = tested on: Fusarium moniliforme A2284; assay: In vitro antifungal activity, serial agar dilution; conditions: Fusarium verticillioides, A2284, 40 h, pH 7
# Protocol: as §6
# [18] = tested on: Blastomyces dermatidis D40; assay: In vitro antifungal activity, serial agar dilution; conditions: D40, 40 h, pH 7
# Protocol: as §6
# [19] = tested on: Petriellidium boydii IF08078; assay: In vitro antifungal activity, serial agar dilution; conditions: Scedosporium boydii, IF08078, 40 h, pH 7
# Protocol: as §6
# [20] = tested on: Mucor spinosus IF05317; assay: In vitro antifungal activity, serial agar dilution; conditions: IF05317, 40 h, pH 7
# Protocol: as §6
smiles,measurement,setting,value
CCCCC/C=C/C=C\C=C/C(O)C(C)C(C/C=C/C1OC(=O)C=CC1O)OS(=O)(=O)O (centres unmarked) [BU-3285T],IC50,[1],13.3 µg/mL
same,IC50,[2],3.4 µg/mL
same,IC50,[3],3.8 µg/mL
same,IC50,"[4]; Mus musculus, P388/VCR, 72 h",4.4 µg/mL
same,cytotoxicity against P388/VCR compared with parent cells,[4]; vs P388 parent,almost the same cytotoxicity
same,inhibition of protein synthesis (specificity),[5]; L-1210 leukemia cells,specific inhibitor of protein synthesis
same,IC50,"[5]; Mus musculus, L1210, labelled precursor, 15 min + 60 min, 37° C., read-out: IC50, protein synthesis",0.78 µg/mL
same,inhibition of protein synthesis stronger than RNA synthesis,"[5]; protein vs RNA synthesis, L1210 cells",18 times
same,Body wt. change on day 6,[6]; 0.1 mg/kg/day ip,+2.3 g
same,MST (median survival time),[6]; 0.1 mg/kg/day ip,8.0 days
same,T/C,"[6]; 0.1 mg/kg/day ip, significant if T/C ≥ 125%",114%
same,Body wt. change on day 6,[6]; 0.3 mg/kg/day ip,+2.5 g
same,MST (median survival time),[6]; 0.3 mg/kg/day ip,8.0 days
same,T/C,"[6]; 0.3 mg/kg/day ip, *2 significant, T/C ≥ 125%",114%
same,Body wt. change on day 6,[6]; 1 mg/kg/day ip,+1.5 g
same,MST (median survival time),[6]; 1 mg/kg/day ip,9.0 days
same,T/C,"[6]; 1 mg/kg/day ip, *2 significant, T/C ≥ 125%",129%
same,Body wt. change on day 6,[6]; 3 mg/kg/day ip,+1.5 g
same,MST (median survival time),[6]; 3 mg/kg/day ip,9.0 days
same,T/C,"[6]; 3 mg/kg/day ip, *2 significant, T/C ≥ 125%",129%
same,Body wt. change on day 6,[6]; 10 mg/kg/day ip,0.0 g
same,MST (median survival time),[6]; 10 mg/kg/day ip,10.5 days
same,T/C,"[6]; 10 mg/kg/day ip, *2 significant, T/C ≥ 125%",150%
same,activity compared with mitomycin C,"[6]; L1210, in terms of minimum effective dose",somewhat weaker
same,in vivo antitumor activity,[6]; L1210 leukemia in mice,potent in vivo inhibitory activity; also recorded: good antitumor activity
same,IC50,[7],1.9 µg/mL
same,IC50,[8],4.1 µg/mL
same,inhibitory effect on DNA synthesis,[9],no significant inhibitory effect
same,solubility in acetone,[10]; acetone,slightly soluble
same,solubility in chloroform,[10]; chloroform,insoluble
same,solubility in dimethyl sulfoxide,[10]; dimethyl sulfoxide,soluble
same,solubility in ethanol,[10]; ethanol,soluble
same,solubility in ethyl acetate,[10]; ethyl acetate,slightly soluble
same,solubility in methanol,[10]; methanol,soluble
same,solubility in n-hexane,[10]; n-hexane,insoluble
same,solubility in water,[10]; water,soluble
same,IC50,[11],17 µg/mL
same,cytotoxicity in vitro,[12]; murine and human tumor cell lines,exhibits in vitro antifungal activity and cytotoxicity; also recorded: quite active
same,IC50 values against the murine and human tumor cell lines (range),[12]; range over cell lines of Table 14,1.9 to 38 µg/mL
same,MIC,[13],25 µg/mL
same,MIC,[14],1.6 µg/mL
same,MIC,[15],25 µg/mL
same,MIC,[16],50 µg/mL
same,MIC,[17],25 µg/mL
same,MIC,[18],12.5 µg/mL
same,MIC,[19],0.8 µg/mL
same,MIC,[20],25 µg/mL
